Source: publication PMC11763059, “GENI as an AMPK Activator Binds α and γ Subunits and Improves the Memory Dysfunction of Alzheimer’s Disease Mouse Models via Autophagy and Neuroprotection” (Antioxidants, 2025)

Tests used:
PC12 cells [1] = experiment: Neuroprotection assay (MTT) on H2O2-damaged PC12 cells; format: cell-based; details: GENI 1, 3, or 10 μM 24 h, then 0.8 mM H2O2 1 h
Procedure: We seeded 5 × 10^4 PC12 cells in each well of a 24-well plate and incubated the cells for 24 h at 37 °C in 5% CO2. The medium was changed to 1 mL of serum-free Dulbecco’s modified Eagle’s medium (DMEM; Thermo Scientific, Shanghai, China) containing the different test samples. To determine the optimal concentration of hydrogen peroxide (H2O2), we treated cells with 0.5% dimethyl sulfoxide (DMSO) for 24 h and then incubated the cells with different concentrations of H2O2 for 1 h. In this work, 0.8 mM H2O2 was selected as the best dose for the following experiment. To study the neuroprotective effects of GENI, we treated PC12 cells with resveratrol (RES 10 μM) or GENI (1, 3, or 10 μM) for 24 h and 0.8 mM H2O2 for 1 h. The medium was changed to 500 μL of serum-free DMEM containing 200 μg/mL 3-(4,5-dimethyltaizol-2-yl)-2,5-diphenyltetrazolium bromide (MTT) and incubated for an additional 2 h. The medium was completely removed, and 200 μL of DMSO was added to each well to dissolve the formed formazan crystals. The resulting formazan was detected at 570 nm using a microplate reader (Bio-Tec Instruments Inc., Winooski, VT, USA).

PC12 cells [2] = experiment: MDA content assay in PC12 cells; format: cell-based; details: GENI 3 or 10 μM 24 h, 0.8 mM H2O2 1 h
Procedure: To determine ROS levels in PC12 cells, we seeded 5 × 10^4 PC12 cells in each well of a 24-well plate. Cells were treated with RES (10 μM) or GENI (1, 3, and 10 μM) for 24 h, followed by 0.8 mM H2O2 for 1 h. DCFH-DA (2,7-dichlorodihydrofluorescein diacetate, final concentration, 10 μM) was then added to each well and incubated for 30 min. Cells were washed with PBS to remove extracellular DCFH-DA, and intercellular ROS was detected by using a SpectraMax M3 multimode microplate reader (Molecular Devices Corporation, San Jose, CA, USA) at an excitation wavelength of 488 nm and an emission wavelength of 525 nm. Meanwhile, DCF in PC12 cells was observed using a fluorescence microscope (HCS, Thermo Fisher, Science, Waltham, MA, USA). To detect malondialdehyde (MDA) content and total SOD enzymatic activities in PC12 cells, we seeded 2 × 10^6 PC12 cells in 60 mm dishes containing 5 mL of DMEM and cultured the cells for 24 h. PC12 cells were treated with RES (10 μM) or GENI (3 or 10 μM) for 24 h and then treated with 0.8 mM H2O2 for 1 h to determine the MDA content and total superoxide dismutase (SOD) activities. Cells were lysed and centrifuged. […] MDA quantification and total SOD activities were determined using MDA and SOD enzyme activity assay kits (Nanjing Jiancheng Bioengineering Institute, Nanjing, China) following the manufacturer’s instructions.

natural aging AD mice = experiment: Behaviour tests in naturally aged mice with AD; format: in vivo
Procedure: Each group had 10 mice. GENI was dissolved in ultrapure water and administered by gavage, whereas Dor was dissolved in normal saline. The pH was adjusted to pH 5 with 0.1 M hydrochloric acid to the clarified solution and administered by intraperitoneal injection. The dosing experiment also lasted 10 weeks. Animal behavioral experiments and sampling at the end of the animal experiment were performed as described above.
The Y-maze is mainly used to study the spatial working memory ability of rodents. The Y-maze consisted of three equal-length arms (50 cm × 18 cm × 35 cm), and the angle between each two arms was 120 degrees. The mice were placed at the end of any arm of the Y-maze and allowed to explore freely for 8 min. The behavioral changes including the total number of entries and alternation (successively entering all three arms of the Y-maze once in turn) were recorded. Percentage altercation = alternation/(entries-2) × 100%. The Y-maze could effectively reflect the ability of animals to recognize and remember novel environments.
NOR was used to detect memory in rodents. We prepared a 40 × 40 × 40 cm square box, camera equipment, and behavioral analysis software. We chose three objects A, B, and C, where objects A and B were exactly the same, and object C was very different from objects A and B. After the start of the experiment, the mice were allowed to acclimate freely in the experimental apparatus for 10 min. Objects A and B were placed into the box, and the mice were allowed to explore for 5 min. We then recorded the exploration time and times. After 1 h, A and C or B and C were placed into the box. After letting the mice explore for 5 min, we recorded the exploration time of the original object and the new object. Discrimination index = exploration time of new objects/total exploration time × 100%.
The MWM installation consisted of a circular pool (120 cm in diameter and 50 cm in height), camera equipment, and a computer analysis system. In the first stage, the platform position was fixed, and mice were placed into the pool from any three of the four origins on the pool facing away from the pool wall. The time when it took for the mouse to find the platform within 120 s, called escape latency, was recorded. The training period lasted 4 days. The escape latency of the mice was recorded daily, and the average value was used as an index to evaluate the ability of learning and memory. On the 5th day, the platform was evacuated by the experimenter. The mice were placed against the platform into the water from any water entry point, and they were allowed to swim freely for 60 s. We then recorded the number of times that they crossed the platform.

[3] = biological target: T1, AMPK-s2 (α subunit- D157A) (Rattus norvegicus, UniProt P54645+P80385, D168A); experiment: SPR analysis, AMPK mutant s2; format: binding
T1 construct: His (N); made in house
T1 sequence (P54645 13-559 D168A limits assumed): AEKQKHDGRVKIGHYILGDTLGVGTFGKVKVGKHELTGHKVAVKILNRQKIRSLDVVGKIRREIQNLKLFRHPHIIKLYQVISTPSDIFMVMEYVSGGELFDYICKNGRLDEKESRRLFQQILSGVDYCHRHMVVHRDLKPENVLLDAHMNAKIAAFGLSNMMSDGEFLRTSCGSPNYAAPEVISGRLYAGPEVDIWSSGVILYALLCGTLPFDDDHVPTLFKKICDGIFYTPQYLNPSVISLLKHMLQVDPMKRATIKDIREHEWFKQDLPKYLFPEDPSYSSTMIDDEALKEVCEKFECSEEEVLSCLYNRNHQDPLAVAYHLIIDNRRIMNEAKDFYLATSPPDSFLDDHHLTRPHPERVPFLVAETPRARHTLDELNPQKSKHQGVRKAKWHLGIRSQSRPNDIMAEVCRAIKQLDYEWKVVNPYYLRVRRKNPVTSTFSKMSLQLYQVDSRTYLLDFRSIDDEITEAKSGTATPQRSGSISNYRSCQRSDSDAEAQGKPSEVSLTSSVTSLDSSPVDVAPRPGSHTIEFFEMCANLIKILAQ
T1 sequence (P80386 whole entry partner): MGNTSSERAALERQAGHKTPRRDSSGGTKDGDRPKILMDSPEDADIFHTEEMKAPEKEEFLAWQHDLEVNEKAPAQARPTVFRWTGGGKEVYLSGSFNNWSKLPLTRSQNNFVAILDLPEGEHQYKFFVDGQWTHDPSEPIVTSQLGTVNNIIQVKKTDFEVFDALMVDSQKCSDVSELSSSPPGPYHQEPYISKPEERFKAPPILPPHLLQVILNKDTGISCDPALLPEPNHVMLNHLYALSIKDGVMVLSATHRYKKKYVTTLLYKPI
T1 sequence (P80385 whole entry): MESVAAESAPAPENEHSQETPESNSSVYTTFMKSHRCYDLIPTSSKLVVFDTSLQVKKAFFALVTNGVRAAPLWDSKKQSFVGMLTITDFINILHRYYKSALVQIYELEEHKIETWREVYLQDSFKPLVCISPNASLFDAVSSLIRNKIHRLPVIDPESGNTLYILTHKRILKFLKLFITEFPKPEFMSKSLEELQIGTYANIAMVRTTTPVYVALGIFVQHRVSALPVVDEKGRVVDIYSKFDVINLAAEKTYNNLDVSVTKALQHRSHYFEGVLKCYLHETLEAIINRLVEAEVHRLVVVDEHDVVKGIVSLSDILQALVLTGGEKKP

CC(C)CCOC(=O)C1=CO[C@@H](O[C@@H]2O[C@H](CO)[C@@H](O)[C@H](O)[C@H]2O)C2C(CO)=CCC12 (stereo partly shown) [GENI, Geniposidic 4-isoamyl ester]
survival rate of PC12 cells induced by H2O2 (PC12 cells [1]): significantly improve | H2O2-induced increase in MDA (PC12 cells [2]): significantly reduce | escape latency, first 4 days of the training phase, water maze test (natural aging AD mice; GENI 25 mg/kg): significantly reduce | number of crossing platforms, fifth day, water maze test (natural aging AD mice; GENI 25 mg/kg): increase | cognitive function (alternating arm entry rate, novel object recognition index) in Y maze and NOR tests (natural aging AD mice; GENI 25 mg/kg intragastrically once a day): improvement | dose-dependent response in SPR ([3]; D157 replaced with A157): No significant dose-dependent response | kon ([3]; SPR, association rate, read-out: Ka): 9120 M⁻¹ s⁻¹
